Where two headings read alike, the source gives them in different places.
How the values were obtained:
[1] = Pharmacokinetic study in CD-1 mice (plasma and brain); assay type: in vivo
Protocol: Male CD-1 mice weighing about 25 g were randomly divided into groups of 3.
The intravenous (IV) dose was 1 mg/kg, and the intragastric (IG) dose was 5 mg/kg. Animals were fasted for 12 h before administration, with free access to water, and were fed together 3 h post-administration. Blood samples of about 0.15 mL were collected at 5 min (intravenous), 15 min, 30 min, 1 h, 2 h, 4 h, 8 h, 12 h, and 24 h post-administration into heparinized EP tubes and centrifuged at 13,500 rpm for 10 min to separate the plasma. Mouse brain tissue samples were collected after cardiac perfusion at 30 min, 2 h, and 8 h. After pretreatment, the samples were analyzed by LC-MS/MS to determine the concentration of the test compound in the plasma and brain, and pharmacokinetic parameters were calculated.

[2] = biological target: T1, α1β2γ2 GABA receptors (α1β2γ2-CHO-TRex stable cell strain) (Homo sapiens, UniProt P14867+P47870); experiment: Whole-cell patch clamp, intrasynaptic functional activity (positive allosteric regulation of GABA-induced current); assay type: cell-based; details: patch clamp -60 mV, GABA at EC10-20, α1β2γ2-CHO-TRex cells
T1 construct: expressed in transfected cells
T1 sequence (P14867 28-456): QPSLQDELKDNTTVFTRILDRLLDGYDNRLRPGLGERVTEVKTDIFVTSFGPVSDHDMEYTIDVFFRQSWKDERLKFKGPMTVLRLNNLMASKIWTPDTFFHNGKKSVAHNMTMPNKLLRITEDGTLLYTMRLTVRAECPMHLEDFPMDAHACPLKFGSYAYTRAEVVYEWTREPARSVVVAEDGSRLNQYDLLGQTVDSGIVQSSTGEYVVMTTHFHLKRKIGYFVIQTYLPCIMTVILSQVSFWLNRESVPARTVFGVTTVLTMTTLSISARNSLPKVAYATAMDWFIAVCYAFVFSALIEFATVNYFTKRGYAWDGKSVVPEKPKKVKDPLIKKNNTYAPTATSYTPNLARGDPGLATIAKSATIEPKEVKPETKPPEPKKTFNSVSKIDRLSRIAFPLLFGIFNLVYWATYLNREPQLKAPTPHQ
T1 sequence (P47870 25-512 limits assumed): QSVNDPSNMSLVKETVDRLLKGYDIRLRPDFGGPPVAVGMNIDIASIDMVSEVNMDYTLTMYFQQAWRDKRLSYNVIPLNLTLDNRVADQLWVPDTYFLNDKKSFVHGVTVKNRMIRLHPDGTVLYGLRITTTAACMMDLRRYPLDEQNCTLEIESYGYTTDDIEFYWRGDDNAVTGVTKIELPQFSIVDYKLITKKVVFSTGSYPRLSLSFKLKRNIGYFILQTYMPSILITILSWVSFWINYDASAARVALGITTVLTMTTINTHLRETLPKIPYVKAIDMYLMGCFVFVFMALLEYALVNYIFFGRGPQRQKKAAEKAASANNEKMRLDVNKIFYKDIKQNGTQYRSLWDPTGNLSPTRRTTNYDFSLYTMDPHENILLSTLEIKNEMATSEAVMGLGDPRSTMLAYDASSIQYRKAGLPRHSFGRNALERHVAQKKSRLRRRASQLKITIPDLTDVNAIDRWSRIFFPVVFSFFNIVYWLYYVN
T1 sequence (P18507 40-475 partner): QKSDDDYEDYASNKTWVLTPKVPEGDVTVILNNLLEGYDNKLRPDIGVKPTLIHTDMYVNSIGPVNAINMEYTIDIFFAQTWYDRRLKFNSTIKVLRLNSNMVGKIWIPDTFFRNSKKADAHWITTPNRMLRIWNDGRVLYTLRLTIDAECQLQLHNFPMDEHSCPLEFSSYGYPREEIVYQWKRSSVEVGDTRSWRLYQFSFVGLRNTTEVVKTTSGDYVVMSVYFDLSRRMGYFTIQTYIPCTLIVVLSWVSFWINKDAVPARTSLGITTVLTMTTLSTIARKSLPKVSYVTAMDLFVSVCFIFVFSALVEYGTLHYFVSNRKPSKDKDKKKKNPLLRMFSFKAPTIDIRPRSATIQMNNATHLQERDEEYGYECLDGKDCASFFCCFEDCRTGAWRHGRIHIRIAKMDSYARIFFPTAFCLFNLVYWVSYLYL
Procedure, shortened: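 Tetracycline-induced stable lines were used: α4β3δ in HEK-FlpIn-TRex and α1β2γ2 in CHO-TRex. Whole-cell patch clamp was run at −60 mV with GABA at EC10-20 ([…]) and compound perfused for 30 s before GABA, with extracellular pH 7.4. Fold increase in GABA current over ≥5 concentrations on ≥3 cells gave EC50 and Emax by Hill fit.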

[3] = Pharmacokinetic study in SD rats (plasma and brain); assay type: in vivo
Protocol: Male SD rats weighing about 250 g were randomly divided into groups of 3.
The intravenous dose was 6.1 mol/kg, and the intragastric dose was 24.4 μmol/kg. Animals were fasted for 12 h before administration, with free access to water, and were fed together 3 h post-administration. Blood samples of about 0.3 mL were collected at 5 min (intravenous), 15 min, 30 min, 1 h, 2 h, 3 h, 4 h, 6 h, 8 h, 12 h, and 24 h post-administration into heparinized EP tubes and centrifuged at 13,500 rpm for 10 min to separate the plasma. Rat brain tissue samples were collected after cardiac perfusion at 30 min, 2 h, and 6 h. After pretreatment, the samples were analyzed by LC-MS/MS to determine the concentration of the test compound in the plasma and brain, and pharmacokinetic parameters were calculated.

SD rats = experiment: Anticonvulsant effect, pentylenetetrazol (PTZ)-induced epileptic convulsion SD rat model; assay type: in vivo
Protocol: To establish an epileptic convulsion SD rat animal model by intraperitoneally injecting 50 mg/kg of pentylenetetrazol (PTZ) into SD rats, and evaluate the anticonvulsant effect of compound 41.
Male SD rats weighing 300±10 g, as test animals, were acclimatized for 7 days after arriving at the animal facility and were randomly divided into groups based on weight one day before administration. The rats were fasted for half a day before testing but had access to water. During the test, compound 41 was orally administered to the animals at 3.5 mg/kg in advance. Two hours after the oral administration, a PTZ solution was intraperitoneally injected at 50 mg/kg. Observations were made on the rats' epileptic convulsion behavior within 1 h of performing PTZ induction. The latency period of clonic convulsion and the latency period of tonic-clonic behavior were measured.
Behavioral raw data are finally expressed as mean±standard error (Mean S.E.M.) and statistically analyzed using One-way ANOVA Dunnett post hoc. P<0.05 indicates the presence of a significant difference, P<0.01 indicates the presence of a very significant difference, and P<0.001 indicates the presence of an extremely significant difference.

[4] = male, mouse, IV 1 mg/kg, plasma
[5] = male, mouse, plasma, IV 1 mg/kg
[6] = male, mouse, plasma, po, IG 5 mg/kg
[7] = male, mouse, po, IG 5 mg/kg, plasma
[8] = male, rat, 6.1 umol/kg, IV 6.1 μmol/kg, plasma
[9] = male, rat, plasma, 6.1 umol/kg, IV 6.1 μmol/kg
[10] = male, rat, plasma, po, 24.4 umol/kg, IG 24.4 μmol/kg
[11] = male, rat, po, 24.4 umol/kg, IG 24.4 μmol/kg, plasma
[12] = 3.5 mg/kg oral 2 h before PTZ 50 mg/kg i.p., observed 1 h, P<0.001 vs solvent control

C[C@@]1(O)CC[C@H]2[C@H](CC[C@@H]3[C@@H]2CC[C@]2(C)[C@@H](C(=O)Cn4cnn(-c5cc(F)nc(F)c5)c4=O)CC[C@@H]32)C1 [Compound 41]
brain penetration capability (in words) ([1]; IG 5 mg/kg): strong | AUC(0-inf) [1, 4]: 4320 ng·h/mL | AUC(0-t) [1, 4]: 3660 ng·h/mL | C0 [1, 4]: 490 ng/mL | concentration at 30 min ([1]; male, mouse, brain, oral, IG 5 mg/kg, 30 min, read-out: Brain concentration): 847 ± 36 ng/g | concentration at 2 h ([1]; male, mouse, brain, oral, IG 5 mg/kg, 2 h, read-out: Brain concentration): 1920 ± 978 ng/g | concentration at 8 h ([1]; male, mouse, brain, oral, IG 5 mg/kg, 8 h, read-out: Brain concentration): 1590 ± 233 ng/g | Kp at 30 min ([1]; male, mouse, brain/plasma, oral, IG 5 mg/kg, 30 min, read-out: Brain-to-blood ratio): 0.9 | Kp at 2 h ([1]; male, mouse, brain/plasma, oral, IG 5 mg/kg, 2 h, read-out: Brain-to-blood ratio): 1.5 | Kp at 8 h ([1]; male, mouse, brain/plasma, oral, IG 5 mg/kg, 8 h, read-out: Brain-to-blood ratio): 1.8 | MRT last [1, 5]: 7.9 h | half-life [1, 5]: 9 h | bioavailability ([1]; male, mouse, plasma, oral, IG 5 mg/kg vs IV 1 mg/kg, read-out: F (absolute bioavailability)): 109% | concentration at 30 min ([1]; male, mouse, plasma, oral, IG 5 mg/kg, 30 min, read-out: Plasma concentration): 936 ± 119 ng/mL | concentration at 2 h ([1]; male, mouse, plasma, oral, IG 5 mg/kg, 2 h, read-out: Plasma concentration): 1280 ± 345 ng/mL | concentration at 8 h ([1]; male, mouse, plasma, oral, IG 5 mg/kg, 8 h, read-out: Plasma concentration): 891 ± 72 ng/mL | MRT last [1, 6]: 9.8 h | Tmax [1, 6]: 1 h | half-life [1, 6]: 16.5 h | AUC(0-inf) [1, 7]: 31300 ng·h/mL | AUC(0-t) [1, 7]: 20000 ng·h/mL | Cmax [1, 7]: 1670 ng/mL | EC50 [2]: 145 nM | Emax [2]: 762% | brain penetration capability (in words) ([3]; IG 24.4 μmol/kg): strong | Brain concentration ([3]; IG 24.4 μmol/kg, 30 min): 2565 ± 452 nmol/kg | Brain concentration ([3]; IG 24.4 μmol/kg, 2 h): 4533 ± 720 nmol/kg | Brain concentration ([3]; IG 24.4 μmol/kg, 6 h): 2692 ± 259 nmol/kg | AUC(0-inf) [3, 8]: 10.1 ± 2.38 µM·h | AUC(0-t) [3, 8]: 9.71 ± 2.26 µM·h | C0 [3, 8]: 2.11 ± 0.537 µM | Kp at 30 min ([3]; male, rat, brain/plasma, oral, IG 24.4 μmol/kg, 30 min, read-out: Brain-to-blood ratio): 0.8 | Kp at 2 h ([3]; male, rat, brain/plasma, oral, IG 24.4 μmol/kg, 2 h, read-out: Brain-to-blood ratio): 1.2 | Kp at 6 h ([3]; male, rat, brain/plasma, oral, IG 24.4 μmol/kg, 6 h, read-out: Brain-to-blood ratio): 1.8 | MRT last [3, 9]: 6.3 ± 0.83 h | half-life [3, 9]: 5.17 ± 0.55 h | bioavailability ([3]; male, rat, plasma, oral, IG 24.4 μmol/kg vs IV 6.1 μmol/kg, read-out: F (absolute bioavailability)): 84% | concentration at 30 min ([3]; male, rat, plasma, oral, IG 24.4 μmol/kg, 30 min): 3.2 ± 1.16 µM | concentration at 2 h ([3]; male, rat, plasma, oral, IG 24.4 μmol/kg, 2 h): 3.81 ± 0.67 µM | concentration at 6 h ([3]; male, rat, plasma, oral, IG 24.4 μmol/kg, 6 h): 1.48 ± 0.261 µM | MRT last [3, 10]: 7.61 ± 0.6 h | Tmax [3, 10]: 1.67 ± 0.58 h | half-life [3, 10]: 6.11 ± 1.44 h | AUC(0-inf) [3, 11]: 35.1 ± 7.03 µM·h | AUC(0-t) [3, 11]: 32.5 ± 5.2 µM·h | Cmax [3, 11]: 3.28 ± 0.324 µM | latency period of clonic convulsion behavior (SD rats; [12]): 2764.6 ± 1330.9 s | latency period of tonic-clonic behavior (SD rats; [12]): 3600 ± 0 s | effective dose for the antiepileptic convulsion effect (SD rats; oral, PTZ model): 3.5 mg/kg
